Test [1] deals with yjdF riboswitch aptamer domain from R. gauvreauii, P2a loop modified for Fab BL3-6 binding (crystallization construct) (RNA, riboswitch) GGACAAAGAUAAAAACACAACGUAUGGCGAAACACGUCAUACAGAUCCGGUAGGUAGUCCGGACAUAAACAGCGGUAUAAAGCGCUGUUUAUAAGUAACCUUCCUCCUUAGGUCGUCCAUUCUUUGUC
The test is described as follows: X-ray crystallography (2.77 Å). The following applies: Mg2+, K+ (PDB ligands; concentrations not in material); co-crystal with Fab BL3-6, potassium osmate(VI) soak, pH 7.5; two ligand orientations.

Test [2] shares this test system. The test is described as follows: X-ray crystallography (3.05 Å). Particulars: Mg2+ (PDB ligand; concentration not in material); co-crystal with Fab BL3-6, pH 7.5; ligand orientation ambiguous.

The structures appear in SMILES notation.

`COc1ccc2c(c[n+](C)c3c4cc5c(cc4ccc23)OCO5)c1OC`: the binding result in test [1] is listed as “yes”. For `Nc1ccc2cc3ccc(N)cc3nc2c1`, the binding entry in test [2] was “yes”.
